Assay [1] has as its system Rattus norvegicus. Nature of the assay: Decrease in weight of wet thrombus in rat at 5 umol/kg. In kind it is functional.
The species named for assay [2] is Oryctolagus cuniculus. In words: Effect on ADP-induced platelet aggregation in rabbit platelet-rich plasma at 10 uM. In kind it is functional.
The species entered for assay [3] is Oryctolagus cuniculus. Nature of the assay: Effect on PAF-induced platelet aggregation in rabbit platelet-rich plasma at 0.1 uM. In kind it is functional.
The species entered for assay [4] is Rattus norvegicus. In words: NO radical scavenging activity assessed as inhibition of Ach-induced vasorelaxation in rat aorta at 1 uM. In kind it is functional.
Assay [5] is filed under the species Oryctolagus cuniculus. In words: Effect on ADP-induced platelet aggregation in rabbit platelet-rich plasma at 1 uM. The format is functional.
The species named for assay [6] is Oryctolagus cuniculus. Nature of the assay: Effect on PAF-induced platelet aggregation in rabbit platelet-rich plasma at 10 uM. The format is functional.
The species entered for assay [7] is Rattus norvegicus. Nature of the assay: NO radical scavenging activity assessed as inhibition of Ach-induced vasorelaxation in rat aorta at 0.1 uM. The format is functional.
The species named for assay [8] is Oryctolagus cuniculus. Nature of the assay: Effect on ADP-induced platelet aggregation in rabbit platelet-rich plasma at 0.1 uM. The format is functional.
The species named for assay [9] is Oryctolagus cuniculus. In words: Effect on PAF-induced platelet aggregation in rabbit platelet-rich plasma at 1 uM. The format is functional.
Assay [10] deals with Rattus norvegicus. Nature of the assay: Decrease in weight of dry thrombus in rat at 5 umol/kg. In kind it is functional.
The subject of assay [11] is PC-12. In words: NO radical scavenging activity assessed in PC12 cells. The format is functional, cell-based. The settings on record: Rattus norvegicus.
Assay [12] is filed under the species Rattus norvegicus. In words: NO radical scavenging activity assessed as inhibition of Ach-induced vasorelaxation in rat aorta at 0.01 uM. In kind it is functional.
Assay [13] has as its system PC-12. In words: H2O2 radical scavenging activity assessed in PC12 cells. The format is functional, cell-based. To be noted: Rattus norvegicus.
For assay [14], the system named is PC-12. Nature of the assay: OH radical scavenging activity assessed in PC12 cells. In kind it is functional, cell-based. The settings on record: Rattus norvegicus.

Usually inhibition stands for the percentage by which the read-out fell short of the control. One may read the EC50 as the midpoint of the concentration-response curve. A low value points to higher potency in that assay.

Molecules are shown by their SMILES. Numbered stars: 1 amine (or outer) side, 2 acyl side, 3 side chain; on linkers, the order of the positions; unused ones are H or OH. Square brackets hold non-standard residues; d marks the D form. Peptide text beside a SMILES is read from it. X1 = COc1cc(C2c3[nH]c4ccccc4c3CC(C(=O)[*:2])N2[*:1])cc(OC)c1O

In the case of `COc1cc(C2N[C@H](C(=O)O)Cc3c2[nH]c2ccccc32)cc(OC)c1O` (some centres undefined), the Activity in assay [1] is listed as 43.76 mg; in assay [2], 27.33%; in assay [3], 55.8%; in assay [5] it was 46.65%; in assay [6], 36.34%; in assay [8] it was 54.88%. Moreover, the Activity in [9] is reported as 51.42%; in assay [10], 7.27 mg. For the same compound, the figures for the inhibition in [4], in [7] and in [12] were 79.9%, 57.2% and 10.9%, respectively. Besides, the results for the EC50 in assay [11] and in assay [13] were 89.7 µM and 43.7 µM, respectively.

In the case of `N=C(N)NCCC[C@H](N)C(=O)NCC(=O)N[C@@H](CC(=O)O)C(=O)N[C@@H](CO)C(=O)O`, the Activity in assay [1] stood at 42.9 mg; in assay [2], 16.6%; in assay [3], 56.69%; in assay [5] it was 39.62%; in assay [6], 22.03%; in assay [8] it was 52.5%. For the same compound, the Activity turned out to be 36.47% in assay [9] and 7.62 mg in assay [10].

On to `N=C(N)NCCC[C@H](N)C(=O)NCC(=O)N[C@@H](CC(=O)O)C(=O)N[C@@H](Cc1ccccc1)C(=O)O` (H-RGDF-OH), for which the Activity was found to be 26.68 mg in assay [1]; 7.87% in [2]; 40.39% in assay [3]; 22.71% in assay [5]; 7.73% in [6]; 34.99% in [8]. Moreover, the Activity was determined as 24.02% in assay [9] and 4.05 mg in assay [10].

On to `CC(C)[C@H](NC(=O)[C@H](CC(=O)O)NC(=O)CNC(=O)[C@@H](N)CCCNC(=N)N)C(=O)O` (H-RGDV-OH), for which the Activity in [1] was found to be 35.6 mg; in [2], 11.65%; in assay [3], 55.07%; in assay [5] it was 29.61%; in assay [6], 20.01%; in assay [8], 51.78%. Besides, the Activity in assay [9] is listed as 34.84%; in assay [10], 6.43 mg.

On to `COc1cc(C2NC(C(=O)N[C@@H](CCCN=C(N)N)C(=O)NCC(=O)N[C@@H](CC(=O)O)C(=O)N[C@@H](Cc3ccccc3)C(=O)O)Cc3c2[nH]c2ccccc32)cc(OC)c1O` (some centres undefined) (H-[X1]RGDF-OH), for which the results for the EC50 in assay [14], in assay [11] and in assay [13] were 90.4 µM, 92.8 µM and 67.9 µM, respectively. In addition, the Activity is recorded as 22.09 mg in assay [1]; 13.11% in assay [2]; 36.59% in assay [3]; 29.43% in [5]; 21.52% in assay [6]; 38% in assay [8]. The Activity is 25.33% in [9] and 2.68 mg in assay [10]. The inhibition in [4] is 90.9%; in assay [7], 73.3%; in [12], 25.4%.

`COc1cc(C2NC(C(=O)N[C@@H](CCCN=C(N)N)C(=O)NCC(=O)N[C@@H](CC(=O)O)C(=O)N[C@@H](CO)C(=O)O)Cc3c2[nH]c2ccccc32)cc(OC)c1O` (some centres undefined) (H-[X1]RGDS-OH): the EC50 amounted to 95.4 µM in assay [14], 87.6 µM in assay [11] and 30.6 µM in assay [13]. Moreover, the Activity in assay [1] is on record as 28.01 mg; in assay [2], 11.33%; in [3], 55.62%; in [5] it was 28.31%; in assay [6], 28.61%; in assay [8], 49.37%. The Activity is on record as 34.59% in assay [9] and 5 mg in assay [10]. Besides, the inhibition was 91.9% in [4], 60.7% in assay [7] and 12.8% in [12].

In the case of `COc1cc(C2NC(C(=O)N[C@@H](CCCN=C(N)N)C(=O)NCC(=O)N[C@@H](CC(=O)O)C(=O)N[C@H](C(=O)O)C(C)C)Cc3c2[nH]c2ccccc32)cc(OC)c1O` (some centres undefined) (H-[X1]RGDV-OH), the EC50 is 92.3 µM in assay [14], 90.3 µM in assay [11] and 33.5 µM in [13]. Also, the Activity in [1] was found to be 29.05 mg; in assay [2], 14.38%; in assay [3], 54.06%; in assay [5], 29.6%; in [6] it was 25.88%; in assay [8], 50.2%. For the same compound, the values for the Activity in assay [9] and in assay [10] were 35.8% and 4.85 mg, respectively. Moreover, the inhibition in [4] turned out to be 92.2%; in assay [7] it was 71.2%; in assay [12], 13.3%.
